A word on the IC50: it is the concentration that inhibits the measured activity by half. Higher therefore signals weaker potency.

In ChEMBL document CHEMBL4118229, “lH-Pyrazolo[3,4-b]quinolin-3-amine derivatives inhibit growth of colon cancer cells via apoptosis and sub G1 cell cycle arrest” (Bioorg Med Chem Lett, 2018) one finds IC50 data, which are given here for four compounds.

The test system of experiment [1] is HCT-15. The experiment is described as follows: Antiproliferative activity against human HCT15 cells by MTT assay. It counts as functional, cell-based. On the technique in general: Tetrazolium dyes change colour on reduction, which living cells bring about.
Experiment [2] deals with MDA-MB-231. The experiment is described as follows: Antiproliferative activity against human MDA-MB-231 cells by MTT assay. The class given is functional, cell-based.
Experiment [3] relates to A2780. The experiment is described as follows: Antiproliferative activity against human A2780 cells by MTT assay. It counts as functional, cell-based.
The subject of experiment [4] is MCF7. The experiment is described as follows: Antiproliferative activity against human MCF7 cells by MTT assay. It counts as functional, cell-based.
Experiment [5] relates to HCT-116. The experiment is described as follows: Antiproliferative activity against human HCT116 cells by MTT assay. It counts as functional, cell-based.
The test system of experiment [6] is LoVo. The experiment is described as follows: Antiproliferative activity against human LoVo cells by MTT assay. The class given is functional, cell-based.
Experiment [7] has as its system HT-29. The experiment is described as follows: Antiproliferative activity against human HT-29 cells by MTT assay. The class given is functional, cell-based.
In experiment [8] the test system is HEK293. The experiment is described as follows: Antiproliferative activity against human HEK293 cells by MTT assay. It counts as cell-based.
Experiment [9] deals with LN-229. The experiment is described as follows: Antiproliferative activity against human LN229 cells by MTT assay. It counts as functional, cell-based.
The subject of experiment [10] is DU-145. The experiment is described as follows: Antiproliferative activity against human DU145 cells by MTT assay. It counts as functional, cell-based.
The subject of experiment [11] is PC-3. The experiment is described as follows: Antiproliferative activity against human PC3 cells by MTT assay. The class given is functional, cell-based.

Turning to `COc1ccc2nc3[nH]nc(N)c3cc2c1`, the IC50 in [1] was 69.3 µM; in [2], 62.3 µM; in experiment [3], 35.8 µM; in experiment [4] it was 49.5 µM; in experiment [5] it was 57 µM; in experiment [6] it was 55.6 µM. The half-maximal inhibitory concentration (IC50) is 85.2 µM in experiment [7]; > 100 µM in experiment [8]; 93.7 µM in [9]; 76.5 µM in experiment [10]; > 100 µM in [11].

Regarding `Nc1n[nH]c2nc3c(ccc4ccccc43)cc12`, the 50% inhibitory concentration (IC50) in experiment [1] was 68.6 µM; in [2], > 100 µM; in experiment [3], 13.5 µM; in experiment [4], 73.6 µM; in [5], 76.1 µM; in experiment [6] it was 80.6 µM. Moreover, the 50% inhibitory concentration (IC50) in experiment [7] is 98.7 µM; in [8], > 100 µM; in experiment [9] it was 54.3 µM; in experiment [10] it was > 100 µM; in experiment [11], 59.7 µM.

For `COc1cc2cc3c(N)n[nH]c3nc2cc1OC`, the half-maximal inhibitory concentration (IC50) in [1] amounted to 12.8 µM; in experiment [2], 77.9 µM; in [3] it was 19.6 µM; in [4], 72.1 µM; in [5], 40.8 µM; in experiment [6] it was 33.4 µM. Besides, the 50% inhibitory concentration (IC50) stood at 19.4 µM in experiment [7]; 81.1 µM in [8]; 26 µM in experiment [9]; 73.4 µM in [10]; 65.2 µM in experiment [11].

As for `Nc1n[nH]c2nc3cc(Cl)ccc3cc12`, the half-inhibitory concentration (IC50) in experiment [1] is 44.8 µM; in experiment [2], 89.9 µM; in [3] it was 59.9 µM; in [4] it was > 100 µM; in [5] it was 56.6 µM; in experiment [6], 77.5 µM. The IC50 is 42.3 µM in experiment [7]; 36.6 µM in experiment [8]; 58.6 µM in [9]; > 100 µM in experiment [10]; > 100 µM in experiment [11].
